pIC50: −log10 of the molar value.
Columns and labels:
15-PGDH in A549 cells = target: T1, 15-PGDH in A549 cells (Homo sapiens, UniProt P15428); assay: A549 cellular 15-PGDH assay (PGE2 accumulation, HTRF); type: cell-based; conditions: interleukin-stimulated, inhibitor 24 hrs, PGE2 by competitive HTRF, read-out: A549 Cell Assay IC50
T1 construct: endogenous in cells; host or cells: A549
T1 sequence (P15428 1-266): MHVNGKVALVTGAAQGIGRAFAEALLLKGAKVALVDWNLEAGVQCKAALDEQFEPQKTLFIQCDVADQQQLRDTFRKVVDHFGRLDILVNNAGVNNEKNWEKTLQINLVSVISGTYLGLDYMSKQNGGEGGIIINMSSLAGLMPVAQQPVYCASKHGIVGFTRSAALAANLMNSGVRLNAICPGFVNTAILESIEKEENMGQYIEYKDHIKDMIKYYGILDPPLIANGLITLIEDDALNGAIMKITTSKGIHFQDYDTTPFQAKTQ
Summary of the method: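 Supernatant PGE2 was quantified by competitive HTRF, in which sample PGE2 blocks FRET between a europium cryptate-labelled antibody and labelled PGE2. It came from A549 epithelial cells induced with IL-13. IC50s were calculated from the inversely proportional signal.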

[1] = target: T2, human recombinant 15-PGDH (Homo sapiens, UniProt P15428); assay: Recombinant 15-PGDH enzymatic inhibition assay (PGDH-Lumi, NADH signal); type: biochemical; conditions: recombinant 15-PGDH; 15 min pre-incubation, 60 min reaction with PGE2 and NAD+, NADH signal
T2 sequence (P15428 1-266): T1 sequence (P15428 1-266)
Summary of the method: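 Buffer 50 mM Tris pH 7.5 with 0.01% Tween-20 and […]; compound, 22 two-fold dilutions, pre-incubated with enzyme 15 min before substrate.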

| pIC50 (15-PGDH in A549 cells) | pIC50 [1] | Compound |
| --- | --- | --- |
| 10.06 | 9.42 | Cn1cc2cc(-c3ccc4cc([C@]5(O)C[C@](C)(C#N)C5)sc4n3)cnc2n1 [Compound C63T, trans-3-hydroxy-1-methyl-3-(6-(2-methyl-2H-pyrazolo[3,4-b]pyridin-5-yl)thieno[2,3-b]pyridin-2-yl)cyclobutanecarbonitrile] |
| 9.08 | 9.23 | Cn1nnc2cc(-c3ccc4cc([C@]5(O)C[C@@H](C(F)(F)F)C5)sc4n3)cnc21 [Compound C79C, cis-1-(6-(3-methyl-3H-[1,2,3]triazolo[4,5-b]pyridin-6-yl)thieno[2,3-b]pyridin-2-yl)-3-(trifluoromethyl)cyclobutanol] |
| 7.74 | 8.96 | Cn1ncc2cc(-c3ccc4cc([C@H](O)C5CCOCC5)sc4n3)cnc21 (single isomer, unassigned) [Compound B35R] |
| 7.95 | 7.46 | OC1(c2cc3ccc(-c4ccc5oncc5c4)nc3s2)CC(F)(F)C1 [Compound C50, 1-(6-(1,2-benzoxazol-5-yl)thieno[2,3-b]pyridin-2-yl)-3,3-difluorocyclobutanol] |
| 10.21 | 9.39 | Cn1cc2cc(-c3ccc4sc([C@H](O)C5CC(F)(F)C5)cc4n3)cnc2n1 (single isomer, unassigned) [Compound B73R] |
| 9.29 | 9.42 | Cn1cc2cc(-c3ccc4cc([C@H](O)[C@@H]5CC5(F)F)sc4n3)cnc2n1 (single isomer, unassigned) [Compound B85RS] |
| 7.72 | 6.92 | Cn1cc2cc(-c3ccc4cc([C@@H](O)C(F)(F)F)sc4n3)cnc2n1 (single isomer, unassigned) [Compound B23S] |
| 8.17 | 7.62 | OC1(c2cc3ccc(-c4ccc5[nH]ncc5c4)nc3s2)CC(F)(F)C1 [Compound C42, 3,3-difluoro-1-(6-(1H-indazol-5-yl)thieno[2,3-b]pyridin-2-yl)cyclobutanol] |
| 8.21 | 9.01 | O[C@]1(c2cc3cnc(-c4ccc5nccnc5c4)nc3s2)C[C@H](C(F)(F)F)C1 [Compound C123C, cis-1-(2-(6-quinoxalinyl)thieno[2,3-d]pyrimidin-6-yl)-3-(trifluoromethyl)cyclobutanol] |
| 8.11 | 8.32 | COCC[C@@H](O)c1cc2ccc(-c3cnc4nn(C)cc4c3)cc2s1 (single isomer, unassigned) [Compound B59R] |
| 9.19 | 8.92 | Cn1cc2cc(-c3ccc4cc([C@@H](O)[C@H]5C[C@H](C(F)(F)F)C5)sc4n3)cnc2n1 (single isomer, unassigned) [Compound B84ST] |
| 8.85 | 9.47 | Cn1cc2cc(-c3ccc4cc(C(O)C(F)(F)F)sc4n3)cnc2n1 (stereo not drawn) [Compound B23, 2,2,2-trifluoro-1-(6-(2-methyl-2H-pyrazolo[3,4-b]pyridin-5-yl)thieno[2,3-b]pyridin-2-yl)ethanol] |
| 7.62 | 7.98 | CO[C@]1(C)C[C@@](O)(c2cc3cnc(-c4cnc5c(c4)nnn5C)nc3s2)C1 (single isomer, unassigned) [Compound C121C] |
| 10.24 | 9.42 | Cn1cc2cc(-c3ccc4cc(C5(O)CC6(CC(F)(F)C6)C5)sc4n3)cnc2n1 [Compound C27, 6,6-difluoro-2-(6-(2-methyl-2H-pyrazolo[3,4-b]pyridin-5-yl)thieno[2,3-b]pyridin-2-yl)spiro[3.3]heptan-2-ol] |
| 8.63 | 9.12 | Cn1cc2cc(-c3ncc4cc([C@]5(O)C[C@@](C)(C#N)C5)sc4n3)cnc2n1 (single isomer, unassigned) [Compound C96C, cis-3-hydroxy-1-methyl-3-(2-(2-methyl-2H-pyrazolo[3,4-b]pyridin-5-yl)thieno[2,3-d]pyrimidin-6-yl)cyclobutanecarbonitrile] |
| 9.85 | 9.48 | Cn1cc2cc(-c3ccc4cc(C5(O)CC6(CCC6)C5)sc4n3)cnc2n1 [Compound C25, 2-(6-(2-methyl-2HI-pyrazolo[3,4-b]pyridin-5-yl)thieno[2,3-b]pyridin-2-yl)spiro[3.3]heptan-2-ol] |
| 10.44 | 9.44 | Cn1cc2cc(-c3ccc4cc(C5(O)CC6(CCCC6)C5)sc4n3)cnc2n1 [Compound C53, 2-(6-(2-methyl-2H-pyrazolo[3,4-b]pyridin-5-yl)thieno[2,3-b]pyridin-2-yl)spiro[3.4]octan-2-ol] |

| pIC50 (15-PGDH in A549 cells) | pIC50 [1] | Compound |
| --- | --- | --- |
| 6.57 | 6.27 | Cn1cc2cc(-c3ccc4ccc(C5(O)CC(C)(C)C5)cc4n3)cnc2n1 [Compound D2, 3,3-dimethyl-1-(2-(2-methyl-2H-pyrazolo[3,4-b]pyridin-5-yl)-7-quinolinyl)cyclobutanol] |
| 9.08 | 9.02 | [2H]C(O)(c1cc2ccc(-c3cnc4nn(C)cc4c3)nc2s1)C1CCOCC1 (stereo not drawn) [Compound B66, (6-(2-methyl-2H-pyrazolo[3,4-b]pyridin-5-yl)thieno[2,3-b]pyridin-2-yl)(tetrahydro-2H-pyran-4-yl)methan-d-ol] |
| 8.80 | 9.09 | OC1(c2cc3ccc(-c4cnc5[nH]nnc5c4)nc3s2)CC(F)(F)C1 [Compound C55] |
| 8.98 | 8.82 | Cn1cc2cc(-c3cc(-c4ccnn4C)c4cc(C(O)C5CCC5)sc4n3)cnc2n1 (stereo not drawn) [Compound B2, cyclobutyl(6-(2-methyl-2H-pyrazolo[3,4-b]pyridin-5-yl)-4-(1-methyl-1H-pyrazol-5-yl)thieno[2,3-b]pyridin-2-yl)methanol] |
| 9.22 | 9.40 | CCCC(O)c1cc2ccc(-c3cnc4nn(C)cc4c3)nc2s1 (stereo not drawn) [Compound B27, 1-(6-(2-methyl-2H-pyrazolo[3,4-b]pyridin-5-yl)thieno[2,3-b]pyridin-2-yl)-1-butanol] |
| 9.07 | 9.21 | CCn1cc2cc(-c3ccc4cc([C@]5(O)C[C@@H](C(F)F)C5)sc4n3)cnc2n1 [Compound C87C, cis-3-(difluoromethyl)-1-(6-(2-ethyl-2H-pyrazolo[3,4-b]pyridin-5-yl)thieno[2,3-b]pyridin-2-yl)cyclobutanol] |
| 8.71 | 9.23 | Cc1nc2cc(-c3ccc4cc([C@]5(O)C[C@@H](C(F)F)C5)sc4n3)cnc2[nH]1 [Compound C93C, cis-3-(difluoromethyl)-1-(6-(2-methyl-3H-imidazo[4,5-b]pyridin-6-yl)thieno[2,3-b]pyridin-2-yl)cyclobutanol] |
| 10.29 | 9.52 | Cn1cc2cc(-c3ccc4cc([C@]5(O)C[C@@H](C(F)(F)F)C5)sc4n3)cnc2n1 [Compound C29C, cis-1-(6-(2-methyl-2H-pyrazolo[3,4-b]pyridin-5-yl)thieno[2,3-b]pyridin-2-yl)-3-(trifluoromethyl)cyclobutanol] |
| 9.01 | 9.41 | Cn1cc2cc(-c3ccc4nc([C@]5(O)C[C@]6(CC6(F)F)C5)sc4n3)cnc2n1 (single isomer, unassigned) [Compound C115C, cis-1,1-difluoro-5-(5-(2-methyl-2H-pyrazolo[3,4-b]pyridin-5-yl)[1,3]thiazolo[5,4-b]pyridin-2-yl)spiro[2.3]hexan-5-ol] |
| 8.98 | 9.42 | COCCC(O)c1cc2ccc(-c3cnc4nn(C)cc4c3)nc2s1 (stereo not drawn) [Compound B29, 3-methoxy-1-(6-(2-methyl-2H-pyrazolo[3,4-b]pyridin-5-yl)thieno[2,3-b]pyridin-2-yl)propan-1-ol] |
| 8.90 | 8.61 | Cn1cc2cc(-c3ccc4c(Cl)c(C5(O)CC(C)(C)C5)sc4n3)cnc2n1 [Compound C73, 1-(3-chloro-6-(2-methyl-2H-pyrazolo[3,4-b]pyridin-5-yl)thieno[2,3-b]pyridin-2-yl)-3,3-dimethylcyclobutanol] |
| 7.48 | 7.84 | Cc1c2cnc(-c3cnc4nn(C)cc4c3)nc2sc1[C@]1(O)C[C@@H](C(F)F)C1 [Compound C90C, cis-3-(difluoromethyl)-1-(5-methyl-2-(2-methyl-2H-pyrazolo[3,4-b]pyridin-5-yl)thieno[2,3-d]pyrimidin-6-yl)cyclobutanol] |
| 8.84 | 9.29 | Cn1nnc2cc(-c3ccc4cc([C@]5(O)C[C@](C)(C#N)C5)sc4n3)cnc21 (single isomer, unassigned) [Compound C104T, trans-3-hydroxy-1-methyl-3-(6-(3-methyl-3H-[1,2,3]triazolo[4,5-b]pyridin-6-yl)thieno[2,3-b]pyridin-2-yl)cyclobutanecarbonitrile] |
| 6.93 | 6.39 | CO[C@@H]1CC[C@]1(O)c1cc2ccc(-c3cnc4nn(C)cc4c3)nc2s1 (single isomer, unassigned) [Compound C70RR] |
| 8.47 | 8.18 | Cn1cc2cc(-c3ccc4cc([C@]5(O)C[C@H](F)C5)sc4n3)cnc2n1 [Compound C40T, trans-3-fluoro-1-(6-(2-methyl-2H-pyrazolo[3,4-b]pyridin-5-yl)thieno[2,3-b]pyridin-2-yl)cyclobutanol] |
| 9.44 | 9.68 | O[C@@H](c1cc2ccc(-c3cnc4[nH]ncc4c3)nc2s1)C1CC(F)(F)C1 (single isomer, unassigned) [Compound B47R] |

Source: patent US20240409557A1, “5,6-FUSED AND 6,6-FUSED BICYCLIC ALCOHOLS AND ETHERS AND COMPOSITIONS FOR USE AS 15-PROSTAGLANDIN DEHYDROGENASE MODULATORS” (AMGEN INC., priority 2023, published 2024)
